Source: paper PMC6781459, “The study of antimicrobial, anti-cancer, anti-inflammatory and α-glucosidase inhibitory activities of Nigronapthaphenyl, isolated from an extract of Nigrospora sphaerica” (Mycology, 2019)

Molecular target: α-glucosidase
Assay: α-glucosidase inhibition assay (no method or enzyme source described)
Format: biochemical

`COc1cc(OC)c2cc(C(=O)c3ccccc3)ccc2c1OC` [Nigronapthaphenyl] gave an IC50 of 6.9 ± 0.5 µM.
